Active and inactive are the calls of the source. The calls are words filed in the database; no cut-off is given here.
What follows are compounds tested on HepG2 (assay: Effect on PD-L1 level in human HepG2 cells at 0.3 to 3 uM by Western blot analysis). Conditions: dose 0.3-3 µM.
Format: functional, cell-based

Row | Structure (SMILES) | Activity
1 | CC(C)=CC[C@@H](O)C1=CC(=O)c2c(O)ccc(O)c2C1=O [SHIKONIN] | inactive

What follows are compounds tested on HCT-116 (assay: Effect on CSN5 protein level in human HCT-116 cells at 3 uM by Western blot analysis). Conditions: not given.
Format: functional, cell-based

Row | Structure (SMILES) | Activity
2 | CC(C)=CC[C@@H](O)C1=CC(=O)c2c(O)ccc(O)c2C1=O [SHIKONIN] | inactive
3 | CC(C)=CCCC1=CC(=O)c2c(O)ccc(O)c2C1=O [DEOXYSHIKONIN] | inactive

What follows are compounds tested on HCT-116 (assay: Antiproliferative activity against human HCT-116 cells assessed as inhibition of cell proliferation measured after 3 days by MTT assay). Conditions: HCT-116, 72 h.
Format: functional, cell-based

Row | Structure (SMILES) | IC50 [µM]
4 | Nc1nc(C(=O)O)c(CCc2ccc(Cl)cc2Cl)s1 | 56.5
5 | CC(C)=CC[C@H](O)C1=CC(=O)c2c(O)ccc(O)c2C1=O [ALKANNIN] | 0.83
6 | CC(C)=CC[C@@H](O)C1=CC(=O)c2c(O)ccc(O)c2C1=O [SHIKONIN] | 0.52
7 | CC(C)(C)c1ccc(CCc2sc(N)nc2C(=O)O)cc1 | 52
8 | CC(C)=CC[C@@H](OC(=O)C(C)C)C1=CC(=O)c2c(O)ccc(O)c2C1=O [ISOBUTYLSHIKONIN] | 1.73
9 | COc1ccc2cc([C@@H](C)c3sc(N)nc3C(=O)O)ccc2c1 | 40.9
10 | Nc1nc(C(=O)O)c(CCc2ccc(Br)cc2)s1 | 55.6
11 | CC(Cc1ccc(C(C)(C)C)cc1)c1sc(N)nc1C(=O)O (stereo not drawn) | 24.1
12 | CC(C)=CCCC1=CC(=O)c2c(O)ccc(O)c2C1=O [DEOXYSHIKONIN] | 15.5

The compounds below were run against T1, COP9 signalosome complex subunit 5 (Homo sapiens, UniProt Q92905) (assay: Inhibition of CSN5 in human HepG2 cells assessed as increase in neddylation of cullin1 at 3 uM by Western blot analysis). Conditions: not given.
Format: cell-based
Target sequence in this assay (Q92905 2-334 limits assumed, one chain of several): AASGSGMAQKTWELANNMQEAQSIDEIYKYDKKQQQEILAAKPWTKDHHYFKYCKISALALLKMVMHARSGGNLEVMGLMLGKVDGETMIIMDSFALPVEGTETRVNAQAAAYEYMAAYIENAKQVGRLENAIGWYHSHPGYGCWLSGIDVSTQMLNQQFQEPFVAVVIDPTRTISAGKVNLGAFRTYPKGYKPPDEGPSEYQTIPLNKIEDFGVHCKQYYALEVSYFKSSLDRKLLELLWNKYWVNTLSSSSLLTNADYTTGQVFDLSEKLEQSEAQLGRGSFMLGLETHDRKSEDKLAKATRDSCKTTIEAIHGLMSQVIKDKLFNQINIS

Row | Structure (SMILES) | inhibition
13 | CC(C)=CC[C@@H](O)C1=CC(=O)c2c(O)ccc(O)c2C1=O [SHIKONIN] | Active
14 | CC(C)=CCCC1=CC(=O)c2c(O)ccc(O)c2C1=O [DEOXYSHIKONIN] | Active

The compounds below were run against T1, COP9 signalosome complex subunit 5 (assay: Inhibition of CSN5 in human HepG2 cells assessed as increase in neddylation of cullin1 by Western blot analysis). Conditions: dose 0.3-3 µM.
Format: cell-based
Target sequence in this assay (Q92905 2-334 limits assumed, one chain of several): as above

Row | Structure (SMILES) | inhibition
15 | CC(C)=CC[C@@H](O)C1=CC(=O)c2c(O)ccc(O)c2C1=O [SHIKONIN] | Dose-Dependent Effect

Each compound was assayed on HCT-116 (assay: Upregulation of PD-L1 level in human HCT-116 cells at 3 uM by Western blot analysis). Conditions: not given.
Format: functional, cell-based

Row | Structure (SMILES) | Activity
16 | CC(C)=CC[C@@H](O)C1=CC(=O)c2c(O)ccc(O)c2C1=O [SHIKONIN] | Active
17 | CC(C)=CCCC1=CC(=O)c2c(O)ccc(O)c2C1=O [DEOXYSHIKONIN] | inactive

Each compound was assayed against T1, COP9 signalosome complex subunit 5 (assay: (§1) Inhibition of N-terminal His6-tagged CSN5 (2 to 257 residues) (unknown origin) transfected in Transetta cells preincubated with N-(2-(3-(3',6'-dihydroxy-3-oxo-3H-spiro[isobenzofuran-1,9'-xanthen]-5-yl)thioureido)ethyl)-3-(2-(5-methyl-[1,1'-biphenyl]-2-yl)-1H-pyrrolo[2,3-b]pyridin-3-yl)propanamide probe followed by compound addition by fluorescence based microplate reader assay). Conditions: not given.
Format: cell-based
Target sequence in this assay (Q92905 2-334 limits assumed, one chain of several): as above

Row | Structure (SMILES) | inhibition
18 | CC(C)=CC[C@@H](O)C1=CC(=O)c2c(O)ccc(O)c2C1=O [SHIKONIN] | Active
19 | COc1ccc2cc([C@@H](C)c3sc(N)nc3C(=O)O)ccc2c1 | Active
20 | CC(Cc1ccc(C(C)(C)C)cc1)c1sc(N)nc1C(=O)O (stereo not drawn) | Active

What follows are compounds tested against T1, COP9 signalosome complex subunit 5. Conditions: dose 50.0 µM.
Target sequence in this assay (Q92905 2-334 limits assumed, one chain of several): as above
Description: Thermal stabilization of N-terminal His6-tagged CSN5 (2 to 257 residues) (unknown origin) transfected in Transetta cells assessed as change in melting temperature at 50 uM by SYPRO orange dye based thermal shift assay

Row | Structure (SMILES) | ΔTm [°C]
21 | CC(C)=CC[C@H](O)C1=CC(=O)c2c(O)ccc(O)c2C1=O [ALKANNIN] | 1
22 | CC(C)=CC[C@@H](O)C1=CC(=O)c2c(O)ccc(O)c2C1=O [SHIKONIN] | 1

Each compound was assayed against T1, COP9 signalosome complex subunit 5 (assay: Inhibition of CSN5 in human HCT-116 cells assessed as increase in NEDD8-Cul1 level by Western blot analysis). Conditions: dose 3-30 µM.
Format: cell-based
Target sequence in this assay (Q92905 2-334 limits assumed, one chain of several): as above

Row | Structure (SMILES) | inhibition
23 | COc1ccc2cc([C@@H](C)c3sc(N)nc3C(=O)O)ccc2c1 | Dose-Dependent Effect
24 | CC(Cc1ccc(C(C)(C)C)cc1)c1sc(N)nc1C(=O)O (stereo not drawn) | Dose-Dependent Effect

The compounds below were run against T1, COP9 signalosome complex subunit 5 (assay: Inhibition of CSN5 in human HCT-116 cells assessed as increase in neddylation of cullin1 at 3 uM by Western blot analysis). Conditions: not given.
Format: cell-based
Target sequence in this assay (Q92905 2-334 limits assumed, one chain of several): as above

Row | Structure (SMILES) | inhibition
25 | CC(C)=CC[C@@H](O)C1=CC(=O)c2c(O)ccc(O)c2C1=O [SHIKONIN] | Active
26 | CC(C)=CCCC1=CC(=O)c2c(O)ccc(O)c2C1=O [DEOXYSHIKONIN] | Active

Each compound was assayed on HepG2 (assay: Effect on CSN5 protein level in human HepG2 cells at 3 uM by Western blot analysis). Conditions: not given.
Format: functional, cell-based

Row | Structure (SMILES) | Activity
27 | CC(C)=CC[C@@H](O)C1=CC(=O)c2c(O)ccc(O)c2C1=O [SHIKONIN] | inactive
28 | CC(C)=CCCC1=CC(=O)c2c(O)ccc(O)c2C1=O [DEOXYSHIKONIN] | inactive

Each compound was assayed on A-375 (assay: Antiproliferative activity against human A-375 cells assessed as inhibition of cell proliferation measured after 3 days by MTT assay). Conditions: A-375, 72 h.
Format: functional, cell-based

Row | Structure (SMILES) | IC50 [µM]
29 | CC(C)=CC[C@H](O)C1=CC(=O)c2c(O)ccc(O)c2C1=O [ALKANNIN] | 1.42
30 | CC(C)=CC[C@@H](O)C1=CC(=O)c2c(O)ccc(O)c2C1=O [SHIKONIN] | 0.7
31 | CC(C)=CC[C@@H](OC(=O)C(C)C)C1=CC(=O)c2c(O)ccc(O)c2C1=O [ISOBUTYLSHIKONIN] | 1.71
32 | CC(C)=CCCC1=CC(=O)c2c(O)ccc(O)c2C1=O [DEOXYSHIKONIN] | 6.83

Each compound was assayed on HCT-116 (assay: Downregulation of PD-L1 protein expression in human HCT-116 cells at 30 uM by Western blot analysis). Conditions: not given.
Format: functional, cell-based

Row | Structure (SMILES) | Activity
33 | COc1ccc2cc([C@@H](C)c3sc(N)nc3C(=O)O)ccc2c1 | Active

These compounds were tested against T1, COP9 signalosome complex subunit 5 (assay: as §1, with “for 20 mins followed by” for “with”, “probe” for “probe followed by compound”, “addition and measured after 1 hr” for “addition”, “polarization” for “based microplate reader”). Conditions: not given.
Target sequence in this assay (Q92905 whole entry, one chain of several): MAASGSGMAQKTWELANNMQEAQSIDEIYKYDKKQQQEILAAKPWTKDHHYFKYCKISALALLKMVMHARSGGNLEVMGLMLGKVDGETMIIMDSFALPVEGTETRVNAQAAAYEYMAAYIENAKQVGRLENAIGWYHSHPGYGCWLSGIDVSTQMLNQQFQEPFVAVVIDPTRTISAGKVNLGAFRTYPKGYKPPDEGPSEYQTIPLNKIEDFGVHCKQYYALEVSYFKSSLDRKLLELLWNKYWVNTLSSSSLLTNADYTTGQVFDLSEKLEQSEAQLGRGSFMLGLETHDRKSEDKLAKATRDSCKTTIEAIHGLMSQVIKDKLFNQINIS

Row | Structure (SMILES) | IC50 [µM]
34 | Nc1nc(C(=O)O)c(CCc2ccc(Cl)cc2Cl)s1 | 41.7
35 | CC(C)=CC[C@H](O)C1=CC(=O)c2c(O)ccc(O)c2C1=O [ALKANNIN] | 0.27
36 | CC(C)=CC[C@@H](O)C1=CC(=O)c2c(O)ccc(O)c2C1=O [SHIKONIN] | 0.19
37 | CC(C)(C)c1ccc(CCc2sc(N)nc2C(=O)O)cc1 | 19.1
38 | CC(C)=CC[C@@H](OC(=O)C(C)C)C1=CC(=O)c2c(O)ccc(O)c2C1=O [ISOBUTYLSHIKONIN] | 0.6
39 | COc1ccc2cc([C@@H](C)c3sc(N)nc3C(=O)O)ccc2c1 | 26.9
40 | Nc1nc(C(=O)O)c(CCc2ccc(Br)cc2)s1 | 65.5
41 | CC(Cc1ccc(C(C)(C)C)cc1)c1sc(N)nc1C(=O)O (stereo not drawn) | 12.6
42 | CC(C)=CCCC1=CC(=O)c2c(O)ccc(O)c2C1=O [DEOXYSHIKONIN] | 2.51

What follows are compounds tested against T1, COP9 signalosome complex subunit 5 (assay: Binding affinity to N-terminal His6-tagged Zn-II deficient CSN5 (2 to 257 residues) (unknown origin) transfected in Transetta cells assessed as tryptophan fluorescence change at 0 to 100 uM incubated for 10 mins by fluorescence quenching based microplate reader analysis). Conditions: dose 0-100 µM.
Format: cell-based

Row | Structure (SMILES) | Activity
43 | CC(C)=CC[C@@H](O)C1=CC(=O)c2c(O)ccc(O)c2C1=O [SHIKONIN] | inactive

The compounds below were run on MDA-MB-231 (assay: Antiproliferative activity against human MDA-MB-231 cells assessed as inhibition of cell proliferation measured after 3 days by MTT assay). Conditions: MDA-MB-231, 72 h.
Format: functional, cell-based

Row | Structure (SMILES) | IC50 [µM]
44 | Nc1nc(C(=O)O)c(CCc2ccc(Cl)cc2Cl)s1 | > 100
45 | CC(C)(C)c1ccc(CCc2sc(N)nc2C(=O)O)cc1 | 52.5
46 | COc1ccc2cc([C@@H](C)c3sc(N)nc3C(=O)O)ccc2c1 | 68.3
47 | Nc1nc(C(=O)O)c(CCc2ccc(Br)cc2)s1 | 34.1
48 | CC(Cc1ccc(C(C)(C)C)cc1)c1sc(N)nc1C(=O)O (stereo not drawn) | 22.8

The compounds below were run on MDA-MB-231 (assay: Downregulation of PD-L1 protein expression in human MDA-MB-231 cells at 3 to 30 uM by Western blot analysis). Conditions: dose 3-30 µM.
Format: functional, cell-based

Row | Structure (SMILES) | Activity
49 | COc1ccc2cc([C@@H](C)c3sc(N)nc3C(=O)O)ccc2c1 | Active

These compounds were tested against T1, COP9 signalosome complex subunit 5 (assay: Binding affinity to N-terminal His6-tagged CSN5 (2 to 257 residues) (unknown origin) transfected in Transetta cells assessed as decrease in tryptophan fluorescence intensity incubated for 10 mins by fluorescence quenching based microplate reader analysis). Conditions: dose 0-100 µM.
Format: cell-based

Row | Structure (SMILES) | Activity
50 | CC(C)=CC[C@@H](O)C1=CC(=O)c2c(O)ccc(O)c2C1=O [SHIKONIN] | Dose-Dependent Effect
51 | COc1ccc2cc([C@@H](C)c3sc(N)nc3C(=O)O)ccc2c1 | Dose-Dependent Effect
52 | CC(Cc1ccc(C(C)(C)C)cc1)c1sc(N)nc1C(=O)O (stereo not drawn) | Dose-Dependent Effect
53 | CC(C)=CCCC1=CC(=O)c2c(O)ccc(O)c2C1=O [DEOXYSHIKONIN] | Dose-Dependent Effect

Each compound was assayed against T1, COP9 signalosome complex subunit 5 (assay: Inhibition of CSN5 in human MDA-MB-231 cells assessed as increase in NEDD8-Cul1 level by Western blot analysis). Conditions: dose 3-30 µM.
Format: cell-based

Row | Structure (SMILES) | inhibition
54 | COc1ccc2cc([C@@H](C)c3sc(N)nc3C(=O)O)ccc2c1 | Dose-Dependent Effect
55 | CC(Cc1ccc(C(C)(C)C)cc1)c1sc(N)nc1C(=O)O (stereo not drawn) | Dose-Dependent Effect

What follows are compounds tested on HepG2 (assay: Antiproliferative activity against human HepG2 cells assessed as inhibition of cell proliferation measured after 3 days by MTT assay). Conditions: HepG2, 72 h.
Format: functional, cell-based

Row | Structure (SMILES) | IC50 [µM]
56 | Nc1nc(C(=O)O)c(CCc2ccc(Cl)cc2Cl)s1 | > 100
57 | CC(C)=CC[C@H](O)C1=CC(=O)c2c(O)ccc(O)c2C1=O [ALKANNIN] | 4.86
58 | CC(C)=CC[C@@H](O)C1=CC(=O)c2c(O)ccc(O)c2C1=O [SHIKONIN] | 2.96
59 | CC(C)(C)c1ccc(CCc2sc(N)nc2C(=O)O)cc1 | > 100
60 | CC(C)=CC[C@@H](OC(=O)C(C)C)C1=CC(=O)c2c(O)ccc(O)c2C1=O [ISOBUTYLSHIKONIN] | 8.73
61 | COc1ccc2cc([C@@H](C)c3sc(N)nc3C(=O)O)ccc2c1 | 52.1
62 | Nc1nc(C(=O)O)c(CCc2ccc(Br)cc2)s1 | > 100
63 | CC(Cc1ccc(C(C)(C)C)cc1)c1sc(N)nc1C(=O)O (stereo not drawn) | 39.1
64 | CC(C)=CCCC1=CC(=O)c2c(O)ccc(O)c2C1=O [DEOXYSHIKONIN] | 10.5

What follows are compounds tested against T1, COP9 signalosome complex subunit 5 (assay: as §1, with “for 20 mins followed by” for “with”, “probe” for “probe followed by compound”, “addition and measured after 1 hr” for “addition”). Conditions: not given.
Format: cell-based
Target sequence in this assay (Q92905 whole entry, one chain of several): as above

Row | Structure (SMILES) | IC50 [µM]
65 | Nc1nc(C(=O)O)c(CCc2ccc(Cl)cc2Cl)s1 | 41.7
66 | CC(C)=CC[C@H](O)C1=CC(=O)c2c(O)ccc(O)c2C1=O [ALKANNIN] | 0.8
67 | CC(C)=CC[C@@H](O)C1=CC(=O)c2c(O)ccc(O)c2C1=O [SHIKONIN] | 0.41
68 | CC(C)(C)c1ccc(CCc2sc(N)nc2C(=O)O)cc1 | 29.8
69 | CC(C)=CC[C@@H](OC(=O)C(C)C)C1=CC(=O)c2c(O)ccc(O)c2C1=O [ISOBUTYLSHIKONIN] | 1.17
70 | COc1ccc2cc([C@@H](C)c3sc(N)nc3C(=O)O)ccc2c1 | 16.8
71 | Nc1nc(C(=O)O)c(CCc2ccc(Br)cc2)s1 | 64.6
72 | CC(Cc1ccc(C(C)(C)C)cc1)c1sc(N)nc1C(=O)O (stereo not drawn) | 19
73 | CC(C)=CCCC1=CC(=O)c2c(O)ccc(O)c2C1=O [DEOXYSHIKONIN] | 4.81
